Experimental data: US9901637B2, “Vitamin D3 and analogs thereof for treating alopecia” (priority 2009, dated 2018)
Read-outs that look alike come from different tables or passages of the source.

Columns and labels:
SKMEL-28 (melanoma) = assay: Cell growth/viability assay, calcitriol with or without chemotherapy drug; assay type: cell-based
[1] = test system: Primary human epidermal keratinocytes (HEKa); assay: Real-time PCR array, Neuroscience and Ion Channels Array, calcitriol-treated HEKa; assay type: cell-based; conditions: HEKa cells, 0.1 μg/mL calcitriol, three independent experiments
Experimental: (§1) Changes in mRNA levels were evaluated using real-time PCR quantification to assess mRNA levels in preselected subsets containing 80 pathway specific targets (see Appendix). The PCR array analysis utilized two groups of genes—those related to Heat Shock Proteins (SABiosciences), and those related to Neuroscience Ion Channels and Transporters (SABioscience). Primary human epidermal keratinocytes (HEKa) were maintained in Epilife Medium (Cascade Biologics, Inc., Portland Oreg.) along with Human Keratinocyte Growth Supplement (Cascade Biologics, Inc., Portland Oreg.). […] Vehicle control group of cells were treated with 5 mL media containing 1 μL of ethanol. Cells were harvested 3, 6, 16, 24, 48, or 72 hours after the start of the treatment. Cells were lysed for RNA isolation at different treatment times using the RNeasy Mini kit (Qiagen, Inc., Valencia Calif.) following the manufacturer's instructions. RNA was quantified by measuring optical density at 260 nm. First Strand Synthesis: […] Products from the first strand synthesis were diluted with water, mixed with the SYBR green master mix (SABiosciences, Frederick Md.) and loaded onto PCR arrays. Real time PCR was run on the PCR Arrays (Heat Shock Protein Arrays, and Neuroscience and Ion Channel Arrays) (SABiosciences, Frederick Md.) on a Biorad CFX96. Data analyses were performed using the PCR array data analysis software available on the SABiosciences website.

[2] = test system: MCF-7 (breast cancer with p53 mutation); assay: Cell growth/viability assay, calcitriol with or without chemotherapy drug; assay type: cell-based
HEKa cells = assay: Proteomic analysis (2-D gel electrophoresis) of calcitriol-treated HEKa; assay type: cell-based, human; conditions: 0.1 μg/mL calcitriol
Experimental: The cell pellets were then analyzed using proteomic methods, such as 2-D gel and Western blot analysis. […] In all, analysis of about 458 protein spots in the comparative study was performed, comparing the control sample against the 3-, 6-, and 24-hour treatment samples. Six spots showing statistically significant differential changes were identified. These spots were excised, and their protein contents subjected to sequence identification by trypsin digestion and mass spectrometry characterization.

[3] = test system: chemotherapy-induced alopecia (CIA); conditions: for protection from etoposide-induced alopecia: etoposide 1.5 mg/kg daily for 3 days
Experimental: Specifically, Long Evans and Sprague Dawley rats with pups were purchased from Harlan Laboratories, Inc. They were housed and fed according to applicable animal handling rules and regulations. Pups were allowed to acclimate for 48 hours prior to the start of experiments. […] Rats were isolated from their littermates and mother for 6-hour periods of time. Subsequently, the treated area was cleaned with soap and water and pups were returned to their litters. On day 13, rats either received etoposide (1.5 mg/kg daily for 3 days) or cyclophosphamide (CTX) (37.5 mg/kg once) or combination cyclophosphamide (35 mg/kg once) and doxorubicin (2.5 mg/kg daily for 3 days). All chemotherapies were purchased from Sigma and were given intraperitoneally (i.p.) in a total volume of 0.1 mL. Alopecia was recorded 10 days after the last dose of chemotherapy.

MIAC51 = assay: Survival (cure) rate of chloroleukemic rats after two rounds of chemotherapy; assay type: in vivo, Long Evans Rats
Experimental: Animals were then randomized in four groups. All rats received MIAC51 as described below.
On day 5 after birth all rats received 1×105 MIAC51 intraperitoneally in 0.1 ml of serum free (SF) RPMI. MIAC51 were cultured in RPMI 1640 supplemented with L-glutamine and 10% fetal bovine serum at […] in a 5% CO2, 100% humidity incubator. Cells were grown to 50% confluency (1.5×106 ml) collected in 50 ml conical tubes, centrifuged at 600 g for 10 minutes at room temperature and resuspended in SF-RPMI at a concentration of 1×10^6/ml prior to injection.

[4] = test system: Primary human epidermal keratinocytes (HEKa); assay: Real-time PCR array, Heat Shock Protein Array, calcitriol-treated HEKa; assay type: cell-based; conditions: HEKa cells, 0.1 μg/mL calcitriol
Experimental: as §1

PC-3 = assay: Cell viability assay after calcitriol exposure for two passages; assay type: cell-based; conditions: PC-3, 0.1 μg/mL calcitriol for two passages
Experimental: Then these pretreated cells were utilized to set up the cell-based assay. […] Three commonly used chemotherapy drugs (doxorubicin, cisplatin and erlotinib) were selected to evaluate calcitriol treated cells. […] In these experiments, the commercial drugs were serially diluted, starting at a concentration 4-times higher than the final desired concentration for cell incubation.

C=C1/C(=C\C=C2/CCC[C@]3(C)[C@@H]([C@H](C)CCCC(C)(C)O)CC[C@@H]23)C[C@@H](O)C[C@@H]1O [Calcitriol, 1,25-dihydroxyvitamin D3]
effect of calcitriol on cell growth (SKMEL-28 (melanoma); SKMEL-28): no significant growth promoting or growth inhibiting effects | effect on the cytotoxic effect of Doxorubicin (SKMEL-28 (melanoma); SKMEL-28): did not appear to appreciably alter | 5-FU ED50 curve with versus without calcitriol (SKMEL-28 (melanoma); SKMEL-28, 0.1 μg/mL calcitriol): not significantly different | SLC1A1 mRNA Regulation Pattern ([1]; at 16 hrs): upregulated | KCNN4 mRNA Regulation Pattern ([1]; at 48 hours): upregulated at 48 | KCNB2 mRNA Regulation Pattern ([1]; until 24 hours): upregulated until | concentrations giving calcitriol growth inhibition ([2]; MCF-7): > 0.5 µg/mL | concentrations giving calcitriol growth stimulation ([2]; MCF-7): 0.05 to 0.25 µg/mL | effect on the cytotoxic effect of Doxorubicin ([2]; MCF-7): did not appear to appreciably alter | response to other drugs (doxorubucin, cisplatin, erlotinib) after calcitriol exposure ([2]; MCF-7, 0.1 μg/mL calcitriol for two passages): did not alter | Glutathione S-transferase (GST) Response (HEKa cells; at 3, 6, and 24 hours, 2-D gel spot 4): up at 3, | S100 A13 Response (HEKa cells; at 6 and 24 hours, spot 14): up at | Galectin 1 (LGALS1) Response (HEKa cells; at 6 and 24 hours, spot 27): up at | Keratin 1 (KRT1) Response (HEKa cells; at 6 hours, spot 2): up at | Stratum Corneum, Calcitriol Recovered, Mean ± SD (Female Minipigs, 1 μg/mL dermal twice daily 7 days): 0.76 ± 1.3 (3) ng/cm2 | Stratum Corneum, Calcitriol Recovered, Mean ± SD (Female Minipigs, 3 μg/mL dermal twice daily 7 days): 1.12 ± 1.49(3) ng/cm2 | Stratum Corneum, Calcitriol Recovered, Mean ± SD (Female Minipigs, 10 μg/mL dermal twice daily 7 days): 1.65 ± 1.80 (3) ng/cm2 | Stratum Corneum, Calcitriol Recovered, Mean ± SD (Female Minipigs, 30 μg/mL dermal twice daily 7 days): 20.2 ± 11.7 (3) ng/cm2 | Stratum Corneum, Calcitriol Recovered, Mean ± SD (Male Minipigs (1 animal), 100 μg/mL dermal twice daily 7 days): 118.1 ± 11.4 (1) ng/cm2 | Stratum Corneum, Calcitriol Recovered, Mean ± SD (Male Minipigs, 1 μg/mL dermal twice daily 7 days): 56.1 ± 17.4 (3) ng/cm2 | Stratum Corneum, Calcitriol Recovered, Mean ± SD (Male Minipigs, 3 μg/mL dermal twice daily 7 days): 62.4 ± 7.91 (3) ng/cm2 | Stratum Corneum, Calcitriol Recovered, Mean ± SD (Male Minipigs, 10 μg/mL dermal twice daily 7 days): 59.6 ± 14.1 (3) ng/cm2 | Stratum Corneum, Calcitriol Recovered, Mean ± SD (Male Minipigs, 30 μg/mL dermal twice daily 7 days): 54.6 ± 32.5 (3) ng/cm2 | applied dose correlation to tissue level in the epidermis (minipigs, calcitriol concentrations from 3 to 100 μg/mL): near linear increase | dosage protective against CIA ([3]; neonatal rat, administered as 100 μL of 2 μg/mL topical solution): about 0.2 μg | protection from etoposide-induced alopecia ([3]; neonatal rats, 0.1 μg of calcitriol topical for 6 hours daily, 6 days): partial localized protection | protection from cyclophosphamide-induced alopecia ([3]; neonatal rats, 0.3 μg calcitriol topical, cyclophosphamide 37.5 mg/kg once): full body protection | protection from etoposide-induced alopecia ([3]; neonatal rats, 0.3 calcitriol topical): total body protection | interference with the cure rate (MIAC51; cyclophosphamide and doxorubicin group, cure rate in the range of 50-55%): did not interfere with the cure rate | interference with the cure rate (MIAC51; cyclophosphamide group, cure rate in the range of 20-25%): did not interfere with the cure rate | interference with the cure rate (MIAC51; cyclophosphamide, doxorubicin and cytarabine group, cure rate in the range of 75-80%): did not interfere with the cure rate | interference with the cure rate (MIAC51; cyclophosphamide, paclitaxel and etoposide group, cure rate in the range of 78-83%): did not interfere with the cure rate | interference with the cure rate (MIAC51; doxorubicin, paclitaxel and etoposide group, cure rate in the range of 80-83%): did not interfere with the cure rate | HSPB1 (Heat shock 27 kDa protein 1) mRNA Regulation Pattern ([4]; regulated in two independent experiments): Down regulated at 48 hours | DNAJC6 (DnaJ (Hsp40) homolog, subfamily C, member 6) mRNA Regulation Pattern ([4]; two independent experiments): Downregulated | HSF4 (Heat shock transcription factor 4) mRNA Regulation Pattern ([4]; two independent experiments): Upregulated at 48 hours | HSPA2 (Heat shock 70 kDa protein 2) mRNA Regulation Pattern ([4]; two independent experiments): Upregulated at 48 hours | response to other drugs (doxorubucin, cisplatin, erlotinib) after calcitriol exposure (PC-3): did not alter
